Results published in patent US20150353928A1, “Genes Contributing to Survival of Cancer Cells” (Georgetown University, priority 2011, published 2015).

Experiments:
LCC1 cells = experiment: Bortezomib concentration response, Cell Titer Blue viability; format: cell-based; details: 2.5 nM-2.5 μM
Description: (§1) LCC1, LCC9 and MCF7 cells were seeded at density so that the untreated condition was at 80% confluence on day 7 in the appropriate medium. Cells were incubated at 37° C. and 5% CO2 for […]. Twenty-four hours later, cells were treated with Bortezomib with final well concentrations ranging from 2.5 nM-2.5 μM. On the seventh day, 20 μL of 1:1 mixture of Cell Titer Blue (CTB) from Promega and Hank's Buffered Salt Solution (HBSS) was added to each well and incubated for another 4 hours before reading out the results using the EnVision Multilabel Plate Reader from PerkinElmer. Viability was calculated as a percentage of the untreated cells.

LCC9 cells = experiment: as above; format: cell-based; details: 2.5 nM-2.5 μM
Description: as §1

SMILES: CC(C)C[C@H](NC(=O)[C@H](Cc1ccccc1)NC(=O)c1cnccn1)B(O)O [Bortezomib]
- sensitivity to bortezomib compared to MCF7 (concentration response curves) (LCC1 cells): more sensitive
- sensitivity to bortezomib compared to MCF7 (concentration response curves) (LCC9 cells): more sensitive
